Measurements taken from ChEMBL document CHEMBL1201862, “PubChem BioAssay data set” (2004).
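Method: 48-hour compound exposure of cells in 96-well plates, five concentrations, linear interpolation of endpoints. At the GI50, growth is halved.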 The source made the active and inactive calls. No stated cut-off is given here; in the data, active = GI50 up to about 1.1 µM and inactive = higher.

How the values were obtained:
Assay in all cases: DTP human tumour cell line panel, 48 h
[1] = tested on: ACHN
[2] = tested on: HCT-116
[3] = tested on: K562
[4] = tested on: KM12
[5] = tested on: M14
[6] = tested on: MCF7
[7] = tested on: NCI-H460
[8] = tested on: OVCAR-4
[9] = tested on: OVCAR-8
[10] = tested on: PC-3
[11] = tested on: SF-295
[12] = tested on: SK-MEL-28
[13] = tested on: SR
[14] = tested on: SW-620
[15] = tested on: U-251
[16] = tested on: UACC-257
[17] = tested on: UO-31
[18] = tested on: SNB-75
[19] = tested on: MOLT-4

| Structure (SMILES) | GI50 [1] | GI50 [2] | GI50 [3] | GI50 [4] | GI50 [5] | GI50 [6] | GI50 [7] | GI50 [8] | GI50 [9] | GI50 [10] | GI50 [11] | GI50 [12] | GI50 [13] | GI50 [14] | GI50 [15] | GI50 [16] | GI50 [17] | GI50 [18] | GI50 [19] |
| --- | --- | --- | --- | --- | --- | --- | --- | --- | --- | --- | --- | --- | --- | --- | --- | --- | --- | --- | --- |
| CN1CCN(C(=S)N2CCN(C)CC2)CC1 | > 100 µM (inactive) | > 100 µM (inactive) | 7.98 µM (inactive) | > 100 µM (inactive) | > 48.1 µM (inactive) | 1.08 µM (active) | 5.35 µM (inactive) | > 65.2 µM (inactive) | > 100 µM (inactive) | > 29.8 µM (inactive) | > 100 µM (inactive) | > 100 µM (inactive) | 0.213 µM (active) | > 30.8 µM (inactive) | > 100 µM (inactive) | > 100 µM (inactive) | > 100 µM (inactive) | – | – |
| CCCCCN1CCN(c2ncccn2)CC1 | > 100 µM (inactive) | > 100 µM (inactive) | > 100 µM (inactive) | > 100 µM (inactive) | > 100 µM (inactive) | > 100 µM (inactive) | – | > 100 µM (inactive) | > 100 µM (inactive) | > 100 µM (inactive) | > 100 µM (inactive) | > 100 µM (inactive) | > 100 µM (inactive) | > 100 µM (inactive) | > 100 µM (inactive) | > 100 µM (inactive) | > 100 µM (inactive) | > 100 µM (inactive) | – |
| COc1cc(NS(C)(=O)=O)ccc1Nc1c2ccccc2nc2ccccc12 [AMSACRINE] | 0.0525 µM (active) | 0.955 µM (active) | 0.902 µM (active) | 1.44 µM (inactive) | 0.266 µM (active) | 0.103 µM (active) | 0.028 µM (active) | 4.05 µM (inactive) | 0.571 µM (active) | 0.415 µM (active) | 0.104 µM (active) | 2.59 µM (inactive) | – | 0.561 µM (active) | 0.166 µM (active) | 2.95 µM (inactive) | 0.661 µM (active) | 0.403 µM (active) | 0.0332 µM (active) |
| Cc1nc2c(=O)n(C)c(=O)n(C)c2o1 | > 100 µM (inactive) | > 100 µM (inactive) | > 100 µM (inactive) | > 100 µM (inactive) | > 100 µM (inactive) | > 10 µM (inactive) | > 100 µM (inactive) | > 100 µM (inactive) | > 100 µM (inactive) | > 100 µM (inactive) | > 100 µM (inactive) | – | > 100 µM (inactive) | > 100 µM (inactive) | > 100 µM (inactive) | > 100 µM (inactive) | > 100 µM (inactive) | > 100 µM (inactive) | > 100 µM (inactive) |
| CCOC(=O)NC(=S)NC(C)c1ccccc1 (configuration not stated) | > 100 µM (inactive) | > 100 µM (inactive) | > 100 µM (inactive) | > 100 µM (inactive) | > 100 µM (inactive) | > 100 µM (inactive) | – | > 100 µM (inactive) | > 100 µM (inactive) | > 100 µM (inactive) | > 100 µM (inactive) | > 100 µM (inactive) | 56.6 µM (inactive) | > 100 µM (inactive) | > 100 µM (inactive) | > 100 µM (inactive) | 70.6 µM (inactive) | > 100 µM (inactive) | 26.4 µM (inactive) |
| Cc1cccc(C(C)(C)C)c1NC(=O)/C(Cc1nc2ccc([N+](=O)[O-])cc2nc1O)=N\NC(=O)C[N+](C)(C)C | > 100 µM (inactive) | > 100 µM (inactive) | > 100 µM (inactive) | 47.1 µM (inactive) | > 100 µM (inactive) | 74.6 µM (inactive) | > 100 µM (inactive) | > 100 µM (inactive) | > 100 µM (inactive) | 62.5 µM (inactive) | > 100 µM (inactive) | > 100 µM (inactive) | – | 65.8 µM (inactive) | > 100 µM (inactive) | > 100 µM (inactive) | 37.8 µM (inactive) | > 100 µM (inactive) | 38.5 µM (inactive) |
| Cc1cc(N(CCC#N)CCC#N)ccc1C(/N=N/c1ccccc1)=N\NC(=O)c1cc(Cl)ccc1O | 15.8 µM (inactive) | 15.7 µM (inactive) | 22.4 µM (inactive) | 26.1 µM (inactive) | 26.4 µM (inactive) | 11.7 µM (inactive) | 24.5 µM (inactive) | 20.7 µM (inactive) | 21.5 µM (inactive) | 23.5 µM (inactive) | 18.5 µM (inactive) | – | 13.5 µM (inactive) | – | 33.1 µM (inactive) | 18.6 µM (inactive) | 14.8 µM (inactive) | 77.6 µM (inactive) | 39 µM (inactive) |
| COC(=O)c1cc(OC)c(OC)c(OC)c1-c1cc2c(cc1C=O)OCO2 | > 10 µM (inactive) | > 10 µM (inactive) | > 10 µM (inactive) | > 10 µM (inactive) | > 10 µM (inactive) | > 10 µM (inactive) | > 10 µM (inactive) | > 10 µM (inactive) | > 10 µM (inactive) | > 10 µM (inactive) | > 10 µM (inactive) | > 10 µM (inactive) | – | > 10 µM (inactive) | > 10 µM (inactive) | > 10 µM (inactive) | > 10 µM (inactive) | > 10 µM (inactive) | > 10 µM (inactive) |
| CC(OC(C)(C)C)[C@H](NC(=O)OC(C)(C)C)C(=O)O (some centres not stated) | > 100 µM (inactive) | > 100 µM (inactive) | > 100 µM (inactive) | > 100 µM (inactive) | > 100 µM (inactive) | > 100 µM (inactive) | > 100 µM (inactive) | > 100 µM (inactive) | > 100 µM (inactive) | > 100 µM (inactive) | > 100 µM (inactive) | > 10 µM (inactive) | > 100 µM (inactive) | > 100 µM (inactive) | > 100 µM (inactive) | > 100 µM (inactive) | > 100 µM (inactive) | – | > 100 µM (inactive) |
| COc1ccc2c(c1)OC1c3ccccc3OCC21 (configuration not stated) | > 100 µM (inactive) | 77.3 µM (inactive) | 31.8 µM (inactive) | 28.4 µM (inactive) | 93.5 µM (inactive) | 88.1 µM (inactive) | 61.9 µM (inactive) | > 100 µM (inactive) | > 100 µM (inactive) | > 100 µM (inactive) | > 100 µM (inactive) | > 100 µM (inactive) | – | 96.8 µM (inactive) | > 100 µM (inactive) | > 100 µM (inactive) | 48.9 µM (inactive) | 27.4 µM (inactive) | 27.7 µM (inactive) |
| Cc1cc2nnn(C3CCCCO3)c2cc1C (configuration not stated) | > 100 µM (inactive) | > 100 µM (inactive) | > 100 µM (inactive) | > 100 µM (inactive) | > 100 µM (inactive) | > 100 µM (inactive) | > 100 µM (inactive) | > 100 µM (inactive) | > 100 µM (inactive) | > 100 µM (inactive) | > 100 µM (inactive) | – | > 100 µM (inactive) | – | > 100 µM (inactive) | > 100 µM (inactive) | 98.2 µM (inactive) | 88.1 µM (inactive) | > 100 µM (inactive) |
| N#CC12C(=O)N=C(N)C1(C#N)C(c1ccco1)NC1=C2CCCC1 (configuration not stated) | > 100 µM (inactive) | > 100 µM (inactive) | – | > 100 µM (inactive) | > 100 µM (inactive) | 75 µM (inactive) | > 100 µM (inactive) | > 100 µM (inactive) | > 100 µM (inactive) | > 100 µM (inactive) | > 100 µM (inactive) | > 100 µM (inactive) | > 100 µM (inactive) | > 100 µM (inactive) | > 100 µM (inactive) | > 100 µM (inactive) | > 100 µM (inactive) | – | > 100 µM (inactive) |
| OC[C@H]1O[C@@H]2O[C@@](COCc3ccccc3)([C@H](OCc3ccccc3)[C@H]2O)[C@@H]1OCc1ccccc1 | 17.3 µM (inactive) | 16.5 µM (inactive) | 7.76 µM (inactive) | 16.7 µM (inactive) | 17.6 µM (inactive) | 20.6 µM (inactive) | 17 µM (inactive) | 2.99 µM (inactive) | 14.6 µM (inactive) | 14.2 µM (inactive) | 15.3 µM (inactive) | – | 2.33 µM (inactive) | 20.2 µM (inactive) | 15.7 µM (inactive) | 17.5 µM (inactive) | 15.6 µM (inactive) | 16.2 µM (inactive) | 4.98 µM (inactive) |
| O=C(O)CCCc1ccc2ccccc2c1 | > 100 µM (inactive) | > 100 µM (inactive) | > 100 µM (inactive) | > 100 µM (inactive) | > 100 µM (inactive) | > 100 µM (inactive) | > 100 µM (inactive) | > 100 µM (inactive) | > 100 µM (inactive) | > 100 µM (inactive) | > 100 µM (inactive) | > 100 µM (inactive) | 97.9 µM (inactive) | > 100 µM (inactive) | > 100 µM (inactive) | > 100 µM (inactive) | > 100 µM (inactive) | – | > 100 µM (inactive) |
| CC(C)=CCC/C(C)=C/CC/C(C)=C/CSc1ccccc1C(=O)O [SALIRASIB] | 37.7 µM (inactive) | 16.7 µM (inactive) | 36.6 µM (inactive) | 17.6 µM (inactive) | 20.4 µM (inactive) | 24.8 µM (inactive) | 17.4 µM (inactive) | 36.9 µM (inactive) | 17.4 µM (inactive) | 19.3 µM (inactive) | 18.7 µM (inactive) | 21.1 µM (inactive) | – | 35.9 µM (inactive) | 20.2 µM (inactive) | 34.8 µM (inactive) | > 10 µM (inactive) | 19.1 µM (inactive) | 23.5 µM (inactive) |
| O=C(O)Cc1cccc2c1OC(c1ccccc1)C(C(=O)c1ccccc1)C2=O (configuration not stated) | 40.3 µM (inactive) | 33 µM (inactive) | 32.7 µM (inactive) | 25.6 µM (inactive) | – | 34.6 µM (inactive) | 30.5 µM (inactive) | – | 46.6 µM (inactive) | > 100 µM (inactive) | 37.4 µM (inactive) | 65.3 µM (inactive) | 39.3 µM (inactive) | 37.8 µM (inactive) | 40.9 µM (inactive) | > 100 µM (inactive) | 88.9 µM (inactive) | 12.2 µM (inactive) | 43.1 µM (inactive) |
